Measurements published in patent US5093359A, “Primycin components and process for the separation of the antibiotic complex” (priority 1984, dated 1992).
Like-named read-outs stand apart in the source and are kept apart here.

Tests used:
[1] = tested on: Staphylococcus aureus CCM.885.; assay: MIC, strain 1; format: cell-based
[2] = tested on: Staphylococcus aureus DSM.20231; assay: MIC, strain 2; format: cell-based
[3] = tested on: Staphylococcus aureus CCM.2317.; assay: MIC, strain 3; format: cell-based
[4] = tested on: Staphylococcus aureus CCM.2326.; assay: MIC, strain 4; format: cell-based
[5] = tested on: Staphylococcus aureus CCM.2514; assay: MIC, strain 5; format: cell-based
[6] = tested on: Staphylococcus aureus CCM.2515.; assay: MIC, strain 6; format: cell-based
[7] = tested on: Staphylococcus epidermidis CCM.2271; assay: MIC, strain 7; format: cell-based
[8] = tested on: Staphylococcus aureus Smith; assay: MIC, strain 8; format: cell-based
[9] = tested on: Streptococcus faecalis CCM.1875.; assay: MIC, strain 9; format: cell-based; settings: Enterococcus faecalis
[10] = tested on: Streptococcus agalactiae CCM.5153.; assay: MIC, strain 10; format: cell-based
[11] = tested on: Streptococcus agalactiae CCM.5534.; assay: MIC, strain 11; format: cell-based
[12] = tested on: Streptococcus disgalactiae ATTC.9926; assay: MIC, strain 12; format: cell-based
[13] = tested on: Bacillus subtilis ATTC.6633.; assay: MIC, strain 13; format: cell-based
[14] = tested on: Bacillus cereus CCM.2010.; assay: MIC, strain 14; format: cell-based
[15] = tested on: Bacillus licheniformis CCM.2182.; assay: MIC, strain 15; format: cell-based
[16] = tested on: Bacillus licheniformis CCM.2205.; assay: MIC, strain 16; format: cell-based
[17] = tested on: Bacillus subtilis CCM.1718.; assay: MIC, strain 17; format: cell-based
[18] = tested on: Listeria monocytogenes CCM.5576.; assay: MIC, strain 18; format: cell-based
[19] = tested on: Micrococcus flavus ATCC.10240.; assay: MIC, strain 19; format: cell-based
[20] = tested on: Micrococcus luteus DSM.20030.; assay: MIC, strain 20; format: cell-based
[21] = tested on: Sporosarcina ureae DSM.317; assay: MIC, strain 21; settings: DSM.317, 24 h
Procedure: (§1) The antimicrobial activity of the primycin complex and the components thereof is tested on different microorganism strains.
(§2) (Inoculation: 5 × 10^5 /ml, incubation at 37 C.° for

[22] = tested on: Pseudomonas aeruginosa CCM.1960.; assay: MIC, strain 22; settings: 24 h
Procedure: as §1, §2

[23] = tested on: Pseudomonas fluorescens CCM.2115.; assay: MIC, strain 23; settings: 24 h
Procedure: as §1, §2

[24] = tested on: Pseudomonas acidoverans CCM.283; assay: MIC, strain 24; settings: CCM.283, 24 h
Procedure: as §1, §2

[25] = tested on: Proteus vulgaris CCM.1799.; assay: MIC, strain 25; settings: 24 h
Procedure: as §1, §2

[26] = tested on: Shigella sonnei CCM.1373.; assay: MIC, strain 26; settings: 24 h
Procedure: (§3) The table contains the MIC values (/μg/ml) measured on human pathogenic polyresistant strains.
as §1, §2

[27] = tested on: Salmonella typhimurium CCM.5445.; assay: MIC, strain 27; settings: Salmonella enterica, 24 h
Procedure: as §3, §1, §2

[28] = tested on: Escherichia coli DSM.30038.; assay: MIC, strain 28; settings: 24 h
Procedure: as §3, §1, §2

[29] = ATTC.9926, 24 h, strain 12, Table O, 24 hours
[30] = ATTC.9926, 25 h, strain 12, Tables I-XIII, 25 hours

Measured: MIC

CCCCC1C(=O)OC(C(C)C(O)CCCNC(=N)N)C(C)C=C(C)CCCCC(O)CC(O)CC(O)CC(O)CC(O)C(O)C=C(C)C(O)CCCC(O)CCCC(O)CCC(C)C1O (stereo not shown) [C1, oxypricin]
0.2 µg/mL: [11]; strain 11, Tables I-XIII, 25 hours
0.25 µg/mL: [11]; Streptococcus agalactiae, CCM.5534., 24 h, strain 11, Table O, 24 hours, read-out: MIC | [11]; Streptococcus agalactiae, CCM.5534., 25 h, strain 11, Tables I-XIII, 25 hours, read-out: MIC
50 µg/mL: [25] | [26] | [27] | [28]
0.05 µg/mL: [2]; Staphylococcus aureus, DSM.20231, 24 h, strain 2, Table O, 24 hours, read-out: MIC | [2]; Staphylococcus aureus, DSM.20231, 25 h, strain 2, Tables I-XIII, 25 hours, read-out: MIC | [3]; strain 3, Table O, 24 hours, read-out: MIC | [3]; strain 3, Tables I-XIII, 25 hours, read-out: MIC | [4]; strain 4, Table O, 24 hours, read-out: MIC | [4]; strain 4, Tables I-XIII, 25 hours, read-out: MIC | [5]; CCM.2514, strain 5, Table O, 24 hours, read-out: MIC | [5]; CCM.2514, strain 5, Tables I-XIII, 25 hours, read-out: MIC | [8]; strain 8, Table O, 24 hours, read-out: MIC | [8]; strain 8, Tables I-XIII, 25 hours, read-out: MIC | [17]; 24 h, strain 17, Table O, 24 hours, read-out: MIC
0.075 µg/mL: [1]; strain 1, Table O, 24 hours, read-out: MIC | [1]; strain 1, Tables I-XIII, 25 hours, read-out: MIC | [10]; strain 10, Table O, 24 hours, read-out: MIC | [10]; strain 10, Tables I-XIII, 25 hours, read-out: MIC | [18]; strain 18, Table O, 24 hours, read-out: MIC | [18]; strain 18, Tables I-XIII, 25 hours, read-out: MIC
0.01 µg/mL: [19]; strain 19, Table O, 24 hours, read-out: MIC | [19]; strain 19, Tables I-XIII, 25 hours, read-out: MIC | [20]; strain 20, Table O, 24 hours, read-out: MIC | [20]; strain 20, Tables I-XIII, 25 hours, read-out: MIC | [21]
0.5 µg/mL: [12]; [29] | [12]; [30]
0.1 µg/mL: [2]; strain 2, Tables I-XIII, 25 hours
0.75 µg/mL: [9]; strain 9, Table O, 24 hours, read-out: MIC | [9]; strain 9, Tables I-XIII, 25 hours, read-out: MIC
25 µg/mL: [22] | [23] | [24]
0.025 µg/mL: [6]; strain 6, Table O, 24 hours, read-out: MIC | [6]; strain 6, Tables I-XIII, 25 hours, read-out: MIC | [7]; CCM.2271, strain 7, Table O, 24 hours, read-out: MIC | [7]; CCM.2271, strain 7, Tables I-XIII, 25 hours, read-out: MIC | [13]; 24 h, strain 13, Table O, 24 hours, read-out: MIC | [13]; 25 h, strain 13, Tables I-XIII, 25 hours, read-out: MIC | [14]; 24 h, strain 14, Table O, 24 hours, read-out: MIC | [14]; 25 h, strain 14, Tables I-XIII, 25 hours, read-out: MIC | [15]; strain 15, Table O, 24 hours, read-out: MIC | [15]; strain 15, Tables I-XIII, 25 hours, read-out: MIC | [16]; strain 16, Table O, 24 hours, read-out: MIC | [16]; strain 16, Tables I-XIII, 25 hours, read-out: MIC

CCCCC1C(=O)OC(C(C)C(O)CCCNC(=N)N)C(C)C=C(C)CCCCC(O)CC(O)CC(O)CC(O)CC(O)C(OC2OC(CO)C(O)C2O)C=C(C)C(O)CCCC(O)CCCC(O)CCC(C)C1O (stereo not shown) [A1, chinopricin]
50 µg/mL: [25] | [26] | [27] | [28]
1 µg/mL: [11]; Streptococcus agalactiae, CCM.5534., 24 h | [11]; Streptococcus agalactiae, CCM.5534., 25 h
0.5 µg/mL: [18]; 24 h | [18]; 25 h
25 µg/mL: [22] | [23] | [24]
0.025 µg/mL: [21]
0.75 µg/mL: [7]; CCM.2271, 24 h | [7]; CCM.2271, 25 h | [10]; 24 h | [10]; 25 h
0.25 µg/mL: [1]; 24 h | [1]; 25 h | [3]; 24 h | [3]; 25 h | [4]; 24 h | [4]; 25 h | [5]; CCM.2514, 24 h | [5]; CCM.2514, 25 h | [6]; 24 h | [6]; 25 h | [8]; 24 h | [8]; 25 h | [13]; 24 h | [13]; 25 h | [14]; 24 h | [14]; 25 h | [15]; 24 h | [15]; 25 h | [16]; 24 h | [16]; 25 h | [17]; 24 h | [17]; 25 h
0.05 µg/mL: [2]; Staphylococcus aureus, DSM.20231, 24 h | [2]; Staphylococcus aureus, DSM.20231, 25 h | [20]; 24 h | [20]; 25 h
0.075 µg/mL: [19]; 24 h | [19]; 25 h
2.5 µg/mL: [9]; 24 h | [9]; 25 h | [12]; [29] | [12]; [30]
